Measured values published in US20140364428A1, “5-(3-AMINOPHENYL)-5-ALKYL-5,6-DIHYDRO-2H-[1,4]OXAZIN-3-AMINE DERIVATIVES” (Janssen Pharmaceutica NV, priority 2011, published 2014).

What was measured:
[1] = test system: Abeta 1-42 produced and secreted into the medium of human neuroblastoma SKNBE2 cells; experiment: Cellular αLisa assay in SKNBE2 cells, Abeta 1-42; format: cell-based; conditions: SKNBE2 cells expressing wild type hAPP695, incubated for 18 hours, read-out: Cellular αLisa assay in SKNBE2 cells Abeta 42 pIC50 (converted)
Procedure: (§1) In two αLisa assays the levels of Abeta total and Abeta 1-42 produced and secreted into the medium of human neuroblastoma SKNBE2 cells are quantified. The assay is based on the human neuroblastoma SKNBE2 expressing the wild type Amyloid Precursor Protein (hAPP695). The compounds are diluted and added to these cells, incubated for 18 hours and then measurements of Abeta 1-42 and Abeta total are taken. Abeta total and Abeta 1-42 are measured by sandwich αLisa. αLisa is a sandwich assay using biotinylated antibody AbN/25 attached to streptavidin coated beads and antibody Ab4G8 or cAb42/26 conjugated acceptor beads for the detection of Abeta total and Abeta 1-42 respectively. In the presence of Abeta total or Abeta 1-42, the beads come into close proximity. The excitation of the donor beads provokes the release of singlet oxygen molecules that trigger a cascade of energy transfer in the acceptor beads, resulting in light emission. Light emission is measured after 1 hour incubation (excitation at […] and emission at 615 nm).
(§2) A best-fit curve is fitted by a minimum sum of squares method to the plot of % Controlmin versus compound concentration. From this an IC50 value (inhibitory concentration causing 50% inhibition of activity) can be obtained.

[2] = test system: Abeta total produced and secreted into the medium of human neuroblastoma SKNBE2 cells; experiment: Cellular αLisa assay in SKNBE2 cells, Abeta total; format: cell-based; conditions: SKNBE2 cells expressing wild type hAPP695, incubated for 18 hours, read-out: Cellular αLisa assay in SKNBE2 cells Abetatotal pIC50 (converted)
Procedure: as §1, §2

BACE1 = molecular target: T1, BACE1 (Homo sapiens, UniProt P56817); experiment: Biochemical FRET based assay; conditions: recombinant BACE1 protein, APP derived 13 amino acids peptide substrate ('Swedish' mutation), 120 minutes at room temperature, pH 5.0; read-out: Biochemical FRET based assay pIC50 (converted)
T1 construct: recombinant BACE1 protein in a final concentration of 1 mg/ml
Excerpt: This assay is a Fluorescence Resonance Energy Transfer Assay (FRET) based assay. The substrate for this assay is an APP derived 13 amino acids peptide that contains the ‘Swedish’ Lys-Met/Asn-Leu mutation of the amyloid precursor protein (APP) beta-secretase cleavage site. This substrate also contains two fluorophores: (7-methoxycoumarin-4-yl) acetic acid (Mca) is a fluorescent donor with excitation wavelength at 320 nm and emission at 405 nm and 2,4-Dinitrophenyl (Dnp) is a proprietary quencher acceptor. […] Upon cleavage by BACE1, the fluorophore Mca is separated from the quenching group Dnp, restoring the full fluorescence yield of the donor. The increase in fluorescence is linearly related to the rate of proteolysis.
Briefly in a 384-well format recombinant BACE1 protein in a final concentration of 1 mg/ml is incubated for 120 minutes at room temperature with […] in incubation buffer (40 mM Citrate buffer pH 5.0, 0.04% PEG, 4% DMSO) in the absence or presence of compound. Next the amount of proteolysis is directly measured by fluorescence measurement at T=0 and T=120 (excitation at 320 nm and emission at 405 nm). Results are expressed in RFU (Relative Fluorescence Units), as difference between T120 and TO.
as §2

T1 sequence (P56817 46-501): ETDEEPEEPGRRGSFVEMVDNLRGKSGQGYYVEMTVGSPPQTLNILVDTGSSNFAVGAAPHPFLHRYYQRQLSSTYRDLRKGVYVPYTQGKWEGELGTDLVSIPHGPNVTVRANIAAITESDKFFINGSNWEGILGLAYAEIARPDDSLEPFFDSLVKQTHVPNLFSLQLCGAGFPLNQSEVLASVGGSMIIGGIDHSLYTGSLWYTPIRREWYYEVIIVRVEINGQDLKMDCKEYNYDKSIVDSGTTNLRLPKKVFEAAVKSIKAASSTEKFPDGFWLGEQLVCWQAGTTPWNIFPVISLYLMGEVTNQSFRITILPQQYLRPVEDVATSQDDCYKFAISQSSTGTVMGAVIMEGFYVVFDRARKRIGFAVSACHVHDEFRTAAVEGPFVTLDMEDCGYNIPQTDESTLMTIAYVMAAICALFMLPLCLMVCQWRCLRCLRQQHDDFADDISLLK

`COc1cccnc1Nc1ccc(F)c([C@@]2(C)N=C(N)COC2C(F)F)c1` (single isomer, unassigned) [Compound 4, (5R,6R*)-6-(Difluoromethyl)-5-{2-fluoro-5-[(3-methoxypyridin-2-yl)amino]phenyl}-5-methyl-5,6-dihydro-2H-1,4-oxazin-3-amine] gave an IC50 [1] of 9.12 nM, an IC50 [2] of 10.5 nM and a melting point of 136.93 °C. It also gave an IC50 (BACE1) of 58.9 nM.
Work on `COc1cccnc1Nc1cccc([C@@]2(C3CC3)N=C(N)CO[C@@]2(F)C(F)(F)F)c1` [Compound 1, (5R,6S)-5-cyclopropyl-6-fluoro-5-{3-[(3-methoxypyridin-2-yl)amino]phenyl}-6-(trifluoromethyl)-5,6-dihydro-2H-1,4-oxazin-3-amine] yielded an IC50 [1] of 60.3 nM, an IC50 [2] of 53.7 nM and an IC50 (BACE1) of 26.3 nM.
Work on `COc1cccnc1Nc1ccc(F)c([C@@]2(C)N=C(N)CO[C@@H]2F)c1` [Compound 2, (5R,6R)-6-fluoro-5-{2-fluoro-5-[(3-methoxypyridin-2-yl)amino]phenyl}-5-methyl-5,6-dihydro-2H-1,4-oxazin-3-amine] yielded an IC50 [1] of 24 nM, an IC50 [2] of 19.5 nM and an IC50 (BACE1) of 162 nM.
Compound `COc1cccnc1Nc1ccc(F)c([C@@]2(C)N=C(N)COC2=C(F)F)c1` [Compound 3, (5R)-6-(difluoromethylidene)-5-{2-fluoro-5-[(3-methoxyPyridin-2-yl)amino]phenyl}-5-methyl-5,6-dihydro-2H-1,4-oxazin-3-amine] has an IC50 [1] of 105 nM, an IC50 [2] of 89.1 nM and an IC50 (BACE1) of 759 nM.
Work on `C[C@]1(c2cc(Nc3ncccn3)ccc2F)N=C(N)CO[C@@H]1F` [Compound 5, (5R,6R)-6-fluoro-5-[2-fluoro-5-(pyrimidin-2-ylamino)phenyl]-5-methyl-5,6-dihydro-2H-1,4-oxazin-3-amine] yielded an IC50 [1] of 1260 nM, an IC50 [2] of 1100 nM and an IC50 (BACE1) of 1950 nM.
`COc1cccnc1Nc1ccc(F)c([C@@]2(C)N=C(N)CO[C@H]2C(F)(F)F)c1` [Compound 6, (5R,6R)-5-{2-fluoro-5-[(3-methoxypyridin-2-yl)amino]phenyl}-5-methyl-6-(trifluoromethyl)-5,6-dihydro-2H-1,4-oxazin-3-amine] showed an IC50 [1] of 21.4 nM, an IC50 [2] of 20.9 nM and an IC50 (BACE1) of 138 nM.
Compound `C[C@]1(c2cc(Nc3ncccn3)ccc2F)N=C(N)CO[C@H]1C(F)(F)F` [Compound 7, (5R,6R)-5-[2-fluoro-5-(pyrimidin-2-ylamino)phenyl]-5-methyl-6-(trifluoromethyl)-5,6-dihydro-2H-1,4-oxazin-3-amine] has an IC50 [1] of 759 nM, an IC50 [2] of 832 nM and an IC50 (BACE1) of 3720 nM.
`COc1nccnc1Nc1ccc(F)c([C@@]2(C)N=C(N)CO[C@@H]2F)c1` [Compound 8, (5R,6R)-6-fluoro-5-{2-fluoro-5-[(3-methoxypyrazin-2-yl)amino]phenyl}-5-methyl-5,6-dihydro-2H-1,4-oxazin-3-amine] showed an IC50 [1] of 129 nM, an IC50 [2] of 138 nM and an IC50 (BACE1) of 309 nM.
With `CC1(c2cc(Nc3ncccc3C#N)ccc2F)N=C(N)COC1F` (stereo not shown) [Compound 9] the IC50 [1] was 129 nM, the IC50 [2] was 87.1 nM and the IC50 (BACE1) was 224 nM.
